Type in all cases: biochemical
For one assay, the target named is TRKB (Homo sapiens, UniProt Q16620). Briefly: HTRF KinEASE kinase assay, TRKB (kinase selectivity). The settings on record: HTRF KinEASE kit, 3 duplicate wells; read-out: TRKB IC50. The procedure:
(§1) Inhibitory activities against PIM-1, TRKA, TRKB, FLT3, PKCδ, PKCε, PKCη, PAK4, PLK1, ROCK2, and IKKβ kinases were all determined using an HTRF®KinEASE™ kinase assay kit based on a time-resolved fluorescence technology. 7-carbonylstaurosporine (7OSTA) and TP-3654 were used as positive controls, and 3 duplicate wells were set in parallel. […] A signal ratio was calculated as F2/F1×10000, and then an IC50 value was calculated using Graphpad Prism 8 software.
(Time-resolved FRET reads energy transfer from a long-lived donor to a nearby acceptor.)

In the next assay the target is PLK1 (Homo sapiens, UniProt P53350). Briefly: HTRF KinEASE kinase assay, PLK1 (kinase selectivity). The conditions noted are these: HTRF KinEASE kit, 3 duplicate wells; read-out: PLK1 IC50. The procedure: as §1
The target in another assay is PKCδ (Homo sapiens, UniProt Q05655). The experiment in a line: HTRF KinEASE kinase assay, PKCδ (kinase selectivity). The settings on record: HTRF KinEASE kit, 3 duplicate wells; read-out: PKCδ IC50. On the procedure:
as §1

For a further assay, the target named is ROCK2 (Homo sapiens, UniProt O75116). The experiment in a line: HTRF KinEASE kinase assay, ROCK2 (kinase selectivity). The conditions noted are these: HTRF KinEASE kit, 3 duplicate wells; read-out: ROCK2 IC50. The procedure:
as §1

The target of another assay is T1, IKKβ (Homo sapiens, UniProt O14920).
T1 sequence (O14920 1-756): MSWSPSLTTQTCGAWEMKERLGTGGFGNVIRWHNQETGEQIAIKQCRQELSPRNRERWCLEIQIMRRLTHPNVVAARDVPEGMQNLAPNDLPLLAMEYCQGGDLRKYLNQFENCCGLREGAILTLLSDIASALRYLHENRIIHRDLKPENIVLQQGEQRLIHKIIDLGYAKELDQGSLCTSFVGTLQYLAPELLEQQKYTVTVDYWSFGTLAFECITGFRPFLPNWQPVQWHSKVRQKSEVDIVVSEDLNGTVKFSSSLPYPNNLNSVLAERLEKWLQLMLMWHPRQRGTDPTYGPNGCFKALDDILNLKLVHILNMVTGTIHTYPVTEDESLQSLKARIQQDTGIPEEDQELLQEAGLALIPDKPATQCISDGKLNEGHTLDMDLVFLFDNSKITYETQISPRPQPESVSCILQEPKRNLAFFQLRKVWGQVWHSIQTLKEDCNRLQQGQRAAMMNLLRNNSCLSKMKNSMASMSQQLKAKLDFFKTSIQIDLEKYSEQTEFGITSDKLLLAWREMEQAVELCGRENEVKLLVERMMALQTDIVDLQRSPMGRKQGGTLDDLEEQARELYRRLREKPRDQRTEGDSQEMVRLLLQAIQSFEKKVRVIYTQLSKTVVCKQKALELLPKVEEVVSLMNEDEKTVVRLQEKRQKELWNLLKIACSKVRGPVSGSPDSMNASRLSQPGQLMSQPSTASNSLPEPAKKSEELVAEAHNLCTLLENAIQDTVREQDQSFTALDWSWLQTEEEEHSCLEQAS
Briefly: HTRF KinEASE kinase assay, IKKβ (kinase selectivity). The settings on record: HTRF KinEASE kit, 3 duplicate wells; read-out: IKKβ IC50. On the procedure:
as §1

The next assay concerns the target T2, PKCε (Homo sapiens, UniProt Q02156).
T2 sequence (Q02156 1-737): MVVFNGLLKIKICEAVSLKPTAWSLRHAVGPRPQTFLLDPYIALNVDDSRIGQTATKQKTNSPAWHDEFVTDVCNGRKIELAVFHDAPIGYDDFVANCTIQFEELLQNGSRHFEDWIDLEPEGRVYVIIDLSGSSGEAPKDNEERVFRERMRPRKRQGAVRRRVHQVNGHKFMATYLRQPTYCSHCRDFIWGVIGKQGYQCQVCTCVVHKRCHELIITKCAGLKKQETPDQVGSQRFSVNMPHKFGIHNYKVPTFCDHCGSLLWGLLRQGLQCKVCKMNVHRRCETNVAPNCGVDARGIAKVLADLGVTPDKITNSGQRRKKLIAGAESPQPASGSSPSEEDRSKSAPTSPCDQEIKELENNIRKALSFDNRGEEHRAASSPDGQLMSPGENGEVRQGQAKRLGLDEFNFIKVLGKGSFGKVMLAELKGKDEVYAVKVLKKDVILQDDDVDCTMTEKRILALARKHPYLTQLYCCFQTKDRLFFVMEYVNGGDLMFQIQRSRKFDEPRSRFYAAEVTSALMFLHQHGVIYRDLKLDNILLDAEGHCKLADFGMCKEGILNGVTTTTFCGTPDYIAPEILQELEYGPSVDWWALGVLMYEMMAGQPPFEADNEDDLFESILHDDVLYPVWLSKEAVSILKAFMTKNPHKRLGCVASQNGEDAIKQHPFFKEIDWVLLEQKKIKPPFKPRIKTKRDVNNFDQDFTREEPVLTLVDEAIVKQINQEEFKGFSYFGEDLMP
Briefly: HTRF KinEASE kinase assay, PKCε (kinase selectivity). The conditions noted are these: HTRF KinEASE kit, 3 duplicate wells; read-out: PKCε IC50. The procedure:
as §1

Sequence of TRKB (Q16620 32-822, species assumed): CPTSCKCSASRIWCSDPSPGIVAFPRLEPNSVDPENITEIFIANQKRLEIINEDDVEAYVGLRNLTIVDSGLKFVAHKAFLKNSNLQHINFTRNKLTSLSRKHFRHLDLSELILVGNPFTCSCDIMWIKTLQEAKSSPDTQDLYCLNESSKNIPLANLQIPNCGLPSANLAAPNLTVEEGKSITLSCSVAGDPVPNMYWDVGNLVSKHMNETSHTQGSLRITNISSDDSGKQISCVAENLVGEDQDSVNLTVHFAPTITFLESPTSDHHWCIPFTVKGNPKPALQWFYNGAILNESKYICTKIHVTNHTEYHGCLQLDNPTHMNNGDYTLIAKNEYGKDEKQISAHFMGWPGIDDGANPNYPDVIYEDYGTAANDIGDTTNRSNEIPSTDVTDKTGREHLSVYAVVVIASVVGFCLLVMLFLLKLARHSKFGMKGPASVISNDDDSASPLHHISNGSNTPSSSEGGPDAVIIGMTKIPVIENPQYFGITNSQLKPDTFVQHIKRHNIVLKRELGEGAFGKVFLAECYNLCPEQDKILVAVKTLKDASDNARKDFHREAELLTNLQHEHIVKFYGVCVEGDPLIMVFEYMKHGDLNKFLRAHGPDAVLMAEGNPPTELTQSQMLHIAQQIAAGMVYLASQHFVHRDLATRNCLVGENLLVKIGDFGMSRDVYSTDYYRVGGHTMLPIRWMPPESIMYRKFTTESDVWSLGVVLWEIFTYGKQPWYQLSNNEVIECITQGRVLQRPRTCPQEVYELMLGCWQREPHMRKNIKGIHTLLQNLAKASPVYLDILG
Sequence of PKCδ (Q05655 whole entry): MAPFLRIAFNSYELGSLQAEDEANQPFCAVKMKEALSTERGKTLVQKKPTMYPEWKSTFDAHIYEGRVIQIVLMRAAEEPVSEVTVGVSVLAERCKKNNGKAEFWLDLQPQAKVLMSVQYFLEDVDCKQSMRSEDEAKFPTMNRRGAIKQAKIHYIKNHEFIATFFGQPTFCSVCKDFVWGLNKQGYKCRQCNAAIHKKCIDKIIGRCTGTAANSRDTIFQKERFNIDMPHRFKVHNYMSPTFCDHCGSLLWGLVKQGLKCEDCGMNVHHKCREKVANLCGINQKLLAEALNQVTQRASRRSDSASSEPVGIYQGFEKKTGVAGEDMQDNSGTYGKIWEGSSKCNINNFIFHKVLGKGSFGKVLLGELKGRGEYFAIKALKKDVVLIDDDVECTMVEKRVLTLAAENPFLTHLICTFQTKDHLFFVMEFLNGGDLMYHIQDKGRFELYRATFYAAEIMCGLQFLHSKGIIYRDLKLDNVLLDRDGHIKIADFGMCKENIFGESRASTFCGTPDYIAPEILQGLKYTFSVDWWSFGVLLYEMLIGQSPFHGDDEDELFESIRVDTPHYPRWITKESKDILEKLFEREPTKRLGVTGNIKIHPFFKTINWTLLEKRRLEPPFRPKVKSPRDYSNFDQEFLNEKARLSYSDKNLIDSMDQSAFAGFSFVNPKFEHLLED
Sequence of ROCK2 (O75116 whole entry, species assumed): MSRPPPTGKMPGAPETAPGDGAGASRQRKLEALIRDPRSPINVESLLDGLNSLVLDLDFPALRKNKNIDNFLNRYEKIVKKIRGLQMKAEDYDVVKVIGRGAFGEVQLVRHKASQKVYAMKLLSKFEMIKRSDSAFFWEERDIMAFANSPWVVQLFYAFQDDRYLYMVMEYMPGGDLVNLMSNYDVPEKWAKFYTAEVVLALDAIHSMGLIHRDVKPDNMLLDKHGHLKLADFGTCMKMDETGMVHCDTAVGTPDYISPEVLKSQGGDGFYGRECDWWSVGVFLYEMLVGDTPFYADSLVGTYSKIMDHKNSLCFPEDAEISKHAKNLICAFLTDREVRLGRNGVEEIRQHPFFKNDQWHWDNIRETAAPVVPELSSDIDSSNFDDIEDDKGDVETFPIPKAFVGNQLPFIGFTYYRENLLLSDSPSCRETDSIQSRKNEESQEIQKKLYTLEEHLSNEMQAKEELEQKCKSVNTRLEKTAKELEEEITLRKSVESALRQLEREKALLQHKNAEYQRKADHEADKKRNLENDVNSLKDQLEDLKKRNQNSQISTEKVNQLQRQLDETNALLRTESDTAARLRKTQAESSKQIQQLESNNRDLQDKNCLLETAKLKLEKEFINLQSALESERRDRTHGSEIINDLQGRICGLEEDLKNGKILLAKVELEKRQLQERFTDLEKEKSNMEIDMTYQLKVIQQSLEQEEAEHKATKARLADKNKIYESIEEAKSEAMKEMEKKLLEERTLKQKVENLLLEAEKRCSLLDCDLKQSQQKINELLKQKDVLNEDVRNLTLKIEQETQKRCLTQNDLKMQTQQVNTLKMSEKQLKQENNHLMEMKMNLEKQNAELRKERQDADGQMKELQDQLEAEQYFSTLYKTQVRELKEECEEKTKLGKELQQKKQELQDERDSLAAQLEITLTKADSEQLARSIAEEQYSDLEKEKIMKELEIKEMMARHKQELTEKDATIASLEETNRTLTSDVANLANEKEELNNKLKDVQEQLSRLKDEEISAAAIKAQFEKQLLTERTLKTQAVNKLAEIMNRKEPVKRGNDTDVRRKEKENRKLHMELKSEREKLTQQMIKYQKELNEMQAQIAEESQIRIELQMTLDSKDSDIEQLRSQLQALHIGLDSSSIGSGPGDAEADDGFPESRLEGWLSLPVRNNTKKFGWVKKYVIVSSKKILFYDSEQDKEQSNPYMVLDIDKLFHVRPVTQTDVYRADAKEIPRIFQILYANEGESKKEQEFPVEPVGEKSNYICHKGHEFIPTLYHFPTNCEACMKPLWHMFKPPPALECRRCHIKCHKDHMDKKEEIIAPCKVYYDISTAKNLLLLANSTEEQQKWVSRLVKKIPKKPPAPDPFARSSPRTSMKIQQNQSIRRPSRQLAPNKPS
Sequence of PLK1 (P53350 whole entry, species assumed): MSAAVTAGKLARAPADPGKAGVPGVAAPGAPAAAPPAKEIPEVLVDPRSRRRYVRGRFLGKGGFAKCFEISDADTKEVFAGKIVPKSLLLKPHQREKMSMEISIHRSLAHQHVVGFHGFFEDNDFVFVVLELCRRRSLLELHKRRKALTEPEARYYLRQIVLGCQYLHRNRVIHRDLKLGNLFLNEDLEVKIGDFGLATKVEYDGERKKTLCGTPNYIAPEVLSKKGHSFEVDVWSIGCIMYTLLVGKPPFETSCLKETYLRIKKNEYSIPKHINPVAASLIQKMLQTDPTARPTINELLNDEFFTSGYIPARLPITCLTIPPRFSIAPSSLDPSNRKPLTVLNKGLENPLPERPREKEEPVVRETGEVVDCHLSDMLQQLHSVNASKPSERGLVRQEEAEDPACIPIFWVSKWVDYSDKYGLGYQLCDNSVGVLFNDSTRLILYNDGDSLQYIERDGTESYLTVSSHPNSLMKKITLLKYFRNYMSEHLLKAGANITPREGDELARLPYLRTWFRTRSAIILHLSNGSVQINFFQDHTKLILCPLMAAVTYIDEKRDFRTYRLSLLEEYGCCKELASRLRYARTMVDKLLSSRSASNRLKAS

Turning to `CO[C@@H]1[C@H](N(C)C(=O)CCC(=O)NO)C[C@H]2O[C@]1(C)n1c3ccccc3c3c4c(c5c6ccccc6n2c5c31)C(=O)NC4=O` [Compound 17], the IC50 (usually the concentration at which inhibition is half-maximal) on TRKB was 13.6 nM; at PLK1, 421 nM; on PKCδ, 10.4 nM; on ROCK2, 562 nM; on IKKβ, more than 1000 nM; at PKCε it was 69 nM.
